From patent publication US7763580B2, “Methods for treating conditions associated with the accumulation of excess extracellular matrix” (University of Utah Research Foundation, priority 1999, dated 2010)

System: anti-Thy 1 glomerulonephritis
Experiment: Proteinuria in anti-Thy 1 glomerulonephritis
Type: in vivo, Sprague Dawley rats
Conditions: enalapril monotherapy
Experimental: These experiments were performed on male Sprague Dawley rats (200-250 g) obtained from the Sasco colony of Charles River Laboratories (Wilmington, Mass., USA). Animal housing and care were in accordance with the NIH Guide for the Care and Use of Laboratory Animals, NIH Publication No. 85-23, 1985. Animals were fed a normal protein diet (22% protein, Teklad No. 86 550, Teklad Premier Laboratory Diets, Madison, Wis., USA). Glomerulonephritis was induced by tail vein injection of 2.25 mg/Kg of the monoclonal anti-Thy 1.1 antibody OX-7 (NCCC, Biovest International Inc, Minneapolis, Minn., USA). OX-7 binds to a Thy 1-like epitope on the surface of mesangial cells causing complement-dependent cell lysis followed by fibrotic tissue repair (Bagchus et al., Lab Invest. 55:680-687 (1986)). Control animals were injected with similar volumes of phosphate-buffered saline (PBS).
Groups of 8 rats were assigned and treated as outlined in Table 2. Doses of enalapril above […] in drinking water are maximally effective in this model (Peters et al., Kidney Int. 54:1570-1580 (1998)). A dose of […] enalapril was used here. […]
The disease-induced increase in a variable was defined as the mean value for the disease control group minus the mean value of the normal control group. The percent reduction in disease severity in a treated group was calculated as: […]

CCOC(=O)[C@H](CCc1ccccc1)N[C@@H](C)C(=O)N1CCC[C@H]1C(=O)O [enalapril]
reduction of disease-induced increases in urinary protein: 78%
